{"source": "patent US7029863B2", "about": "“Cell culture system for determining the cholesterol efflux potential for serum” (The Children's Hospital of Philadelphia, priority 2001, dated 2006)", "assay_type_in_all_cases": "cell-based", "key": {"[1]": {"tested_on": "W138VA13 human embryonic lung fibroblasts", "assay": "Cell cholesterol efflux to supplemented human serum, untreated W138VA13 fibroblasts", "conditions": "human serum supplemented with increasing levels of the substance; 4 hour incubation; low SR-BI and ABCA1 expression; FIG. 1C", "experimental": "(§1) FIG. 1C is a graph of the percentage of efflux of cell cholesterol after a four hour incubation period of W138VA13 human embryonic lung fibroblasts with serum supplemented with HDL3 and serum supplemented with Apo AI. Numbers on X axis represent the fold increase of HDL3 or Apo AI with the X axis of 1 being the unsupplemented serum.\n(§2) FIGS. 1A–1F illustrate that the expression of SR-BI and ABCA1 independently in cultured cells can be used to detect cell cholesterol efflux to human sera with different levels of apolipoprotein AI, high density lipoprotein (HDL) or high density lipoprotein3 (HDL3). […] The control and supplemented serum samples were then diluted in tissue culture medium and incubated with the indicated cell systems; the efflux of cell cholesterol was measured after a 4 hour incubation period.\nFIG. 1C is a graph of the percentage of efflux of cell cholesterol after a four hour incubation period of W138VA13 human embryonic lung fibroblasts with serum supplemented with HDL3 and serum supplemented with Apo AI. FIG. 1C illustrates that W138VA13 human embryonic lung fibroblasts have low expression levels of both proteins and cell cholesterol efflux is unresponsive to either type of serum supplementation."}, "[2]": {"tested_on": "W138VA13 human embryonic lung fibroblasts transfected with SR-BI with ABCA1 upregulated", "assay": "Cell cholesterol efflux to supplemented human serum, W138VA13 fibroblasts with SR-BI transfected and ABCA1 upregulated", "conditions": "human serum supplemented with increasing levels of the substance; 4 hour incubation; FIG. 1F", "experimental": "(§3) Numbers on X axis represent the fold increase of HDL3 or Apo AI with the X axis of 1 being the unsupplemented serum.\nas §2"}, "[3]": {"tested_on": "J774 mouse macrophages treated with cAMP to upregulate the expression of ABCA1", "assay": "Cell cholesterol efflux to supplemented human serum, J774 macrophages with ABCA1 upregulated by cAMP", "conditions": "human serum supplemented with increasing levels of the substance; 4 hour incubation; FIG. 1B", "experimental": "as §1, with “1B” for “1C”, “J774 mouse macrophages treated with cAMP to upregulate the expression of ABCA1” for “W138VA13 human embryonic lung fibroblasts”\nFor example, in one embodiment of the present invention, an assay to quantitate the contribution of ABCA1 to cellular cholesterol efflux uses a sample of cells, such as transformed mouse macrophages which are grown in monolayers and prelabeled with ^3H-cholesterol. […] The release of the radiolabeled cholesterol is determined after an appropriate incubation time ranging from 1 to 12 hours. The ABCA1 contribution to efflux is determined by subtracting the efflux obtained in ABCA1 negative cultures from that obtained from the ABCA1 positive cultures.\nas §2, with “period. […]” for “period.”"}, "[4]": {"tested_on": "W138VA13 human embryonic lung fibroblasts pretreated with 9-cis retanoic acid (9CRA) and 22 hydroxycholesterol to upregulated ABCA1", "assay": "Cell cholesterol efflux to supplemented human serum, W138VA13 fibroblasts with ABCA1 upregulated", "conditions": "human serum supplemented with increasing levels of the substance; 4 hour incubation; FIG. 1E", "experimental": "as §3, §2"}}}
{"substance": "Apo AI: apolipoprotein AI added to human serum in increasing levels", "values": [{"measurement": "percentage of efflux of cell cholesterol", "setting": "[1]", "value": "unresponsive"}, {"measurement": "efflux of cell cholesterol", "setting": "[2]", "value": "enhanced efflux"}, {"measurement": "percentage of efflux of cell cholesterol", "setting": "[3]", "value": "enhanced cholesterol efflux"}, {"measurement": "percentage of efflux of cell cholesterol", "setting": "[4]", "value": "enhanced"}]}
